{"source": "patent US12053452B2", "about": "(priority 2021, dated 2024)", "key": {"[1]": {"conditions": "human urine, after racemic MDMA; cited from earlier work"}, "C57 mice [2]": {"tested_on": "C57 mice", "test": "Novelty preference test, C57", "assay_type": "in vivo", "experimental": "(§1) This assay was conducted in adult male C57 and BTBR mice (n=6 per group) in a dedicated conditioning room where ambient light, sound, and human contact were tightly controlled. Social preference chambers consist of two polycarbonate boxes (13.5 cm wide×22.5 cm tall×31.0 cm deep), floored with rough-textured black ABS plastic, and connected to one another by a 1.25″ PVC T-junction. An infrared photobeam emitter/detector array is mounted at each intersection of the T-junction and each preference compartment, and as a mouse traversed the apparatus, it would break the photobeam upon entry to or exit from each preference compartment. Beam breaks started or stopped a counter on an interfaced computer, allowing automated collection of time spent in each compartment. At the end of each test, data were reported as time (in seconds) spent in each compartment, the number of entries into each compartment, and the average time spent in each compartment following an entry. Social preference tests were conducted in an iterative manner, with each test subject completing four distinct phases as described below. Between testing sessions, chambers were sanitized by wiping the insides with a disinfectant product provided by the UAMS Department of Laboratory Animal Medicine. At the end of the week (upon completion of all phases of the procedure), each apparatus was disassembled and all parts were sanitized. No food or water were available during social preference sessions, but were available in the home cage immediately afterwards.\nA single novelty preference session occurred the day after the habituation test, where one compartment contained an empty wire mesh cup and the other compartment contained an identical wire mesh cup with a novel dummy mouse inside. The position of the dummy mouse (left or right compartment) was counterbalanced across subjects. Dummy mice were constructed from 2.5″ lengths of white ¾″ PVC pipe, with a zip tie attached to one end (to mimic a tail) and two red dots drawn on the other end (to mimic eyes.) During this session, mice were weighed, administered an injection, and returned to their home cage for a 30 min pretreatment period. Mice were then introduced into the T-junction and allowed to explore both preference compartments for 15 minutes. These tests were conducted as a procedural control to ensure that any observed drug effects were not simply due to enhancement of the innate novelty preference of mice. Novelty preference sessions always occurred on Tuesdays or Wednesdays to prevent any weekend testing."}, "C57 mice [3]": {"tested_on": "C57 mice", "test": "Sociability test, C57", "assay_type": "in vivo", "experimental": "as §1\nA single sociability session occurred the day after the novelty preference test, where one compartment contained a wire mesh cup with a dummy mouse inside while the other compartment contained a male NIH Swiss stranger mouse inside the previously empty cup. […] The position of the dummy mouse (left or right compartment) remained the same for each subject as during the novelty test the day before, thereby counterbalancing the position of the stranger mouse across subjects. NIH Swiss stranger mice were similar in mass and appearance to the dummy PVC mice, and were housed separately from the experimental subjects (C57 and BTBR mice) in the colony facility. The first time the experimental subjects ever encountered the stranger mice was when they entered the compartment where they were contained. During this session, mice were weighed, administered the same injection as the day before, and returned to their home cage for a 30 min pretreatment period. Mice were then introduced into the T-junction and allowed to explore both preference compartments for 15 minutes. Sociability tests always occurred on Wednesdays or Thursdays to prevent any weekend testing."}, "C57 mice [4]": {"tested_on": "C57 mice", "test": "Social novelty preference test, C57", "assay_type": "in vivo", "experimental": "as §1\nA single social novelty preference session occurred the day after the sociability test, where one compartment contained a wire mesh cup with the same NIH Swiss mouse from the previous day inside (referred to now as the “familiar” mouse) while the other compartment contained a new male NIH Swiss stranger mouse inside the cup which previously contained the dummy mouse during the sociability test. […] The position of the now familiar NIH Swiss mouse (left or right compartment) remained the same for each subject as during the sociability test the day before, thereby counterbalancing the position of the new NIH Swiss stranger mouse across subjects. As before, the new NIH Swiss stranger mice were housed separately from the experimental subjects (C57 and BTBR mice) in the colony facility, and the first time the experimental subjects ever encountered them was when they entered the compartment where they were contained. During this session, mice were weighed, administered the same injection as the day before, and returned to their home cage for a 30 min pretreatment period. Mice were then introduced into the T-junction and allowed to explore both preference compartments for 15 minutes. Social novelty tests always occurred on Thursdays or Fridays to prevent any weekend testing."}, "C57 mice [5]": {"tested_on": "C57 mice", "conditions": "mouse, in vivo; for locomotor activity: ip"}, "BTBR mice [6]": {"tested_on": "BTBR mice", "test": "Social novelty preference test, BTBR (autism spectrum disorder model)", "assay_type": "in vivo", "conditions": "in vivo mice models of autism spectrum disorder (BTBR)", "experimental": "as §1\nA single social novelty preference session occurred the day after the sociability test, where one compartment contained a wire mesh cup with the same NIH Swiss mouse from the previous day inside (referred to now as the “familiar” mouse) while the other compartment contained a new male NIH Swiss stranger mouse inside the cup which previously contained the dummy mouse during the sociability test. […]"}, "BTBR mice [7]": {"tested_on": "BTBR mice", "test": "Social preference procedure: compartment entries (proxy for locomotor stimulant effects), BTBR", "assay_type": "in vivo", "experimental": "as §1\n(§2) Quantification of total entries into the preference compartments provided a proxy measurement for locomotor stimulant effects of the various doses of the various test drugs. This established a limit to the drug doses that can be tested in the social preference procedure, as induction of locomotor stimulant effects confounds preference assessments (because mice stop attending to the social stimuli in each compartment and instead spend their time engaged in locomotor behavior.) Motor activity varied across the distinct phases of social preference testing, in part because the habituation session is twice as long (30 minutes) as the novelty, sociability, and social novelty tests (15 minutes each), but also because mice emitted high levels of exploratory behavior in novel environments. Thus, as familiarity with the test apparatus increased over successive exposures to the chambers, the number of entries decreased.\n(§3) (Note that entries were collected for every test, but drug effects on entries during earlier phases may be less reliable due to the confounding influence of changing familiarity with the apparatus across phases.)"}, "C57 mice [8]": {"tested_on": "C57 mice", "test": "Radiotelemetry of core temperature, C57", "assay_type": "in vivo", "experimental": "(§4) The radiotelemetry assay was conducted in adult male C57 and BTBR mice (n=6 per group) in a dedicated testing room where ambient light, sound, and human contact were tightly controlled.\n(§5) Prior to surgical implantation of radiotelemetry probes, mice received 3 mg/kg meloxicam (IP), and anesthesia was induced with 4% inhaled isoflurane and maintained with 1-3% isoflurane (as needed) throughout the procedure at a flow rate of 1.5 litres/minute. The abdominal area of each animal was treated with depilatory cream, then sanitized with 3 alternating scrubs with iodine and alcohol. A rostral-caudal cut approximately 1.5 cm in length was made with sterile skin scissors, providing access to the intraperitoneal cavity. A cylindrical glass-encapsulated radiotelemetry probe (model ER-4000 E-Mitter, Mini Mitter, Bend, OR, USA) was then inserted. These probes measure 15.5 mm×6.5 mm and weigh approximately 1 gram. Incisions were closed (skin layer and muscle layer separately) using reverse cutting 5-0 Vicryl absorbable sutures for the muscle layer and 5-0 nylon suture material for the skin layer. Surgeries were carried out at least 7 days before initiation of experimental conditions, allowing time for incisions to heal and for animals to recover normal body weights. Following surgery, all implanted mice were individually housed in Plexiglas cages within the telemetry room for the duration of all experiments. Implanted transmitters produce activity- and temperature-modulated signals which are sent to a receiver (model ER-4000 Receiver, Mini Mitter Co., Inc.) underneath each cage. Following use, telemetry probes were removed from carcasses, wiped with alcohol swabs, and stored in the disinfectant solution until re-use.\n(§6) At least 7 days after surgical implantation of radiotelemetry probes, mice in their individual home cages were placed atop a telemetry energizer/receiver, which powered probes and transmitted their data to an interfaced computer. Upon initiation of an experimental session, the computer collected two data updates from the probes at 5 min intervals: core temperature (in ° C.) on one channel, and locomotor counts (in arbitrary units, depending on the relative position of the probe atop the receiver) on the other. After at least 60 minutes of baseline data collection, mice were removed from their cages, injected with saline or a given dose of a specific drug, then returned to the home cage 24 hours of data collection.\n(§7) Food and water were always freely available in the home cage. Mice were injected with ascending doses of a given drug, with at least 48 hours separating doses. Because there are few studies of drug effects in BTBR mice, the first drug dose tested occasionally elicited unexpectedly large locomotor effects in these animals. In these cases, smaller drug doses were tested next, after a washout period of at least one full day."}, "BTBR mice [9]": {"tested_on": "BTBR mice", "test": "Radiotelemetry of core temperature, BTBR", "assay_type": "in vivo", "experimental": "as §4, §5, §6, §7"}, "BTBR mice [10]": {"tested_on": "BTBR mice", "test": "Radiotelemetry of locomotor activity, BTBR", "assay_type": "in vivo", "conditions": "0 to 240 minutes", "experimental": "as §4, §5, §6, §7"}, "C57 mice [11]": {"tested_on": "C57 mice", "test": "Social preference procedure: compartment entries (proxy for locomotor stimulant effects), C57", "assay_type": "in vivo", "conditions": "10 mg/kg IP, social novelty test, 10 mg/kg", "experimental": "as §1, §2, §3"}}, "note": "Entries after “also recorded” stand apart in the source; their conditions may differ. Structures can show the parent of a compound that is named as a salt. Where two headings read alike, the source gives them in different places."}
{"smiles": "CNC(C)Cc1ccc(OS(=O)(=O)O)c(OC)c1", "note": "(stereo not shown) [HMMA sulfate]", "values": [{"measurement": "enantiomer with higher Cmax", "setting": "[1]", "value": "Higher R-enantiomer Cmax"}]}
{"smiles": "CN[C@@H](C)Cc1ccccc1", "note": "[methamphetamine]", "values": [{"measurement": "novelty preference (time spent with the dummy mouse)", "setting": "C57 mice [2]; various doses IP", "value": "no systematic effects on novelty preference"}, {"measurement": "sociability (time spent with the stranger mouse vs dummy)", "setting": "C57 mice [3]; various doses IP", "value": "no systematic effects on sociability"}, {"measurement": "social novelty preference (new stranger mouse vs familiar mouse)", "setting": "C57 mice [4]; various doses IP", "value": "no systematic effects on social novelty preference"}]}
{"smiles": "CN[C@@H](C)Cc1ccccc1", "note": "[S(+)-methamphetamine, S-methamphetamine]", "values": [{"measurement": "locomotor activity, strain comparison C57 vs BTBR", "setting": "C57 mice [5]", "value": "no significant strain differences observed at any dose"}, {"measurement": "locomotor effects vs saline", "setting": "C57 mice [5]", "value": "effects were not different from saline"}]}
{"smiles": "CN[C@H](C)Cc1ccc2c(c1)OCO2", "note": "[R(−)-MDMA, (2R)-1-(1,3-benzodioxol-5-yl)-N-methylpropan-2-amine]", "values": [{"measurement": "novelty preference (time spent with the dummy mouse)", "setting": "C57 mice [2]; 10.0 mg/kg IP", "value": "had no effects on locomotor activity (see FIG. 4) or novelty preference"}, {"measurement": "novelty preference (time spent with the dummy mouse)", "setting": "C57 mice [2]; various doses IP", "value": "no systematic effects on novelty preference"}, {"measurement": "pro-social behaviour", "setting": "BTBR mice [6]", "value": "promotes pro-social behaviour"}, {"measurement": "sociability (time spent with the stranger mouse vs dummy)", "setting": "C57 mice [3]; 3.0 mg/kg IP", "value": "elicit significant effects on sociability"}, {"measurement": "sociability (time spent with the stranger mouse vs dummy)", "setting": "C57 mice [3]; 10.0 mg/kg IP", "value": "largest effect on sociability"}, {"measurement": "compartment entries (locomotor stimulant effect)", "setting": "BTBR mice [7]; 3.0 mg/kg IP, social novelty test, 3 mg/kg", "value": "reduced entries; also recorded: suppresses the locomotor activity"}, {"measurement": "compartment entries (locomotor stimulant effect)", "setting": "BTBR mice [7]; all tested doses IP", "value": "do not influence locomotor activity"}, {"measurement": "locomotor activity", "setting": "C57 mice [5]; 10 mg/kg", "value": "did elicit significant motor stimulation"}, {"measurement": "locomotor activity", "setting": "C57 mice [5]; 30 mg/kg", "value": "did not elicit significant motor stimulation"}, {"measurement": "effect on core temperature", "setting": "C57 mice [8]; 10 mg/kg IP", "value": "neither of the mixtures (e.g., exemplary composition 2(i)) nor pure R(−)-MDMA (e.g., exemplary composition 7) elicited significant effects on the core temperature"}, {"measurement": "effect on core temperature", "setting": "C57 mice [8]; 30 mg/kg IP", "value": "neither of the mixtures nor pure R(−)-MDMA elicited significant effects on the core temperature"}, {"measurement": "effect on core temperature", "setting": "BTBR mice [9]; 30 mg/kg IP", "value": "no significant effects on core temperature were observed"}, {"measurement": "effect on core temperature", "setting": "BTBR mice [9]; various/increasing doses IP", "value": "did not elicit significant effects on core temperature"}, {"measurement": "social novelty preference (new stranger mouse vs familiar mouse)", "setting": "C57 mice [4]; 3.0 mg/kg IP", "value": "elicit significant effects on sociability"}, {"measurement": "social novelty preference (new stranger mouse vs familiar mouse)", "setting": "C57 mice [4]; 10 mg/kg IP, 10 mg/kg", "value": "largest effect on social novelty preference"}, {"measurement": "social novelty preference (new stranger mouse vs familiar mouse)", "setting": "C57 mice [4]; 10 mg/kg IP, listed as R-MDMA, 10 mg/kg", "value": "strong preference for the new stranger mouse"}, {"measurement": "locomotor activity", "setting": "BTBR mice [10]; 10 mg/kg IP", "value": "no significant motor stimulation was observed"}, {"measurement": "locomotor activity", "setting": "BTBR mice [10]; 30 mg/kg IP", "value": "no significant motor stimulation was observed"}, {"measurement": "compartment entries (locomotor stimulant effect)", "setting": "C57 mice [11]", "value": "did not increase compartment entries; also recorded: had no effects on locomotor activity"}, {"measurement": "compartment entries (locomotor stimulant effect)", "setting": "C57 mice [11]; listed as R-(−) MDMA", "value": "no stimulant effect on the motor activity"}]}
{"smiles": "CC(N)Cc1ccc2c(c1)OCO2", "note": "(racemic) [MDA, (±)-3,4-methylenedioxyamphetmaine]", "values": [{"measurement": "enantiomer with higher Cmax", "setting": "[1]", "value": "S-enantiomers were higher"}]}
{"smiles": "CNC(C)Cc1ccc(OC2OC(C(=O)O)C(O)C(O)C2O)c(OC)c1", "note": "(stereo not shown) [HMMA glucuronide]", "values": [{"measurement": "enantiomer with higher Cmax", "setting": "[1]", "value": "S-enantiomers were higher"}]}
